Nine compounds from PubChem BioAssay (NCI) can be followed below.

Each structure is given as a SMILES string.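 Growth conditions: 96-well plates. Treatment: test compound, 48 hours, 5 concentrations. Analysis: linear interpolation between bracketing concentrations; unreached endpoints set to highest concentration. Definition used: TGI = concentration required for complete inhibition of growth.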

Some test systems named below: SF-539 CNS; SK-MEL-2 melanoma; U251 CNS; SK-OV-3 ovarian; RPMI-8226 leukemia; OVCAR-8 ovarian; CAKI-1 renal; HCT-116 colon; MDA-MB-435; SN12C renal; SF-295 CNS; SK-MEL-5 melanoma; SF-268 CNS; MCF7 breast; HOP-92 NSCLC; LOX IMVI melanoma; HCC-2998 colon.
Test in all cases: NCI anticancer screen, dose series, 48 h

Take `CN(CCC(=O)O)C1=Nc2ccc(Cl)cc2C(c2ccccc2)=[N+]([O-])C1`: the TGI with SF-539 CNS, in the assay with SK-MEL-2 melanoma, in the assay on U251 CNS, with SK-OV-3 ovarian, in the assay with RPMI-8226 leukemia and in the assay with OVCAR-8 ovarian was greater than 100 µM in each case. Also, the TGI in the assay with CAKI-1 renal, in the assay on HCT-116 colon, in the assay with MDA-MB-435, in the assay on SN12C renal, in the assay on SF-295 CNS and with SK-MEL-5 melanoma was greater than 100 µM in each case. The TGI in the assay on SF-268 CNS, in the assay with MCF7 breast, in the assay with HOP-92 NSCLC and in the assay on LOX IMVI melanoma was greater than 100 µM throughout.
Turning to `CCN(CC)CCn1nc(N)c2nc3ccccc3nc21`, the TGI in the assay on SF-539 CNS, with SK-MEL-2 melanoma, in the assay with HCC-2998 colon, in the assay with U251 CNS, in the assay with SK-OV-3 ovarian and in the assay with RPMI-8226 leukemia was greater than 100 µM each time. The TGI in the assay with OVCAR-8 ovarian, in the assay with CAKI-1 renal, with HCT-116 colon, with MDA-MB-435, with SN12C renal and in the assay on SF-295 CNS was greater than 100 µM throughout. In addition, the TGI with SF-268 CNS, with MCF7 breast, in the assay on HOP-92 NSCLC and with LOX IMVI melanoma was greater than 100 µM in each case.
For `COC(=O)c1cc2c(cc1CC1Cc3cc4c(cc3C1=O)CCC4)CCC2` (configuration not stated), the TGI in the assay with SF-539 CNS, in the assay with SK-MEL-2 melanoma, with HCC-2998 colon, with U251 CNS, in the assay on SK-OV-3 ovarian and in the assay on RPMI-8226 leukemia was greater than 100 µM throughout. For the same compound, the TGI in the assay on OVCAR-8 ovarian is greater than 100 µM; in the assay on CAKI-1 renal it was greater than 100 µM; in the assay with HCT-116 colon it was greater than 100 µM; with MDA-MB-435, greater than 100 µM; in the assay with SN12C renal, greater than 100 µM; with SF-295 CNS, 89.2 µM. Also, the TGI with SK-MEL-5 melanoma was 42.5 µM; with SF-268 CNS, greater than 100 µM; with MCF7 breast, greater than 100 µM; with LOX IMVI melanoma, greater than 100 µM.
`O=c1[nH]c(=O)n(CCOc2ccccc2)cc1Nc1ccccc1`: the TGI with HCC-2998 colon, with U251 CNS, in the assay with RPMI-8226 leukemia, in the assay with CAKI-1 renal, with HCT-116 colon and in the assay on MDA-MB-435 was greater than 100 µM each time. In addition, the TGI in the assay with SN12C renal, with SF-295 CNS, in the assay on SK-MEL-5 melanoma, in the assay with SF-268 CNS, in the assay on MCF7 breast and in the assay on HOP-92 NSCLC was greater than 100 µM each time. The compound also returned a TGI in the assay on LOX IMVI melanoma greater than 100 µM.
`O=C1c2[nH]c3ccc(Br)cc3c2CCN1Cc1ccc(Cl)cc1`: the TGI was determined as 25.5 µM with SF-539 CNS; 47.4 µM with SK-MEL-2 melanoma; 28.3 µM in the assay with HCC-2998 colon; 26.8 µM in the assay on U251 CNS; 48.5 µM in the assay with OVCAR-8 ovarian; 34.4 µM in the assay on CAKI-1 renal. Moreover, the TGI amounted to 23.5 µM in the assay with HCT-116 colon; 28.6 µM in the assay with MDA-MB-435; 39.9 µM in the assay with SN12C renal; 26.2 µM in the assay on SF-295 CNS; 23 µM in the assay on SK-MEL-5 melanoma; 33.2 µM with SF-268 CNS. In addition, the TGI in the assay on MCF7 breast worked out at 35.7 µM; with HOP-92 NSCLC, 33.4 µM; in the assay on LOX IMVI melanoma, 25.9 µM.
Turning to `Nc1cccnc1NCC1(CO)CCCC1`, the TGI in the assay with SF-539 CNS, with SK-MEL-2 melanoma, in the assay on HCC-2998 colon, with U251 CNS, in the assay with SK-OV-3 ovarian and with RPMI-8226 leukemia was greater than 100 µM in each case. For the same compound, the TGI in the assay on OVCAR-8 ovarian, with CAKI-1 renal, with HCT-116 colon, in the assay with MDA-MB-435, in the assay with SN12C renal and in the assay with SF-295 CNS was greater than 100 µM each time. Further, the TGI in the assay on SK-MEL-5 melanoma, with SF-268 CNS, in the assay on MCF7 breast and in the assay on LOX IMVI melanoma was greater than 100 µM each time.
Turning to `N#CC12CNCC1CN=N2` (configuration not stated), the TGI with SK-MEL-2 melanoma, with HCC-2998 colon, with U251 CNS, in the assay with OVCAR-8 ovarian, in the assay on CAKI-1 renal and with HCT-116 colon was greater than 100 µM throughout. In addition, the TGI with MDA-MB-435, with SN12C renal, in the assay with SF-295 CNS, in the assay on SK-MEL-5 melanoma, in the assay with SF-268 CNS and in the assay with MCF7 breast was greater than 100 µM each time. Moreover, the TGI with HOP-92 NSCLC and with LOX IMVI melanoma was greater than 100 µM each time.
Consider `C=C1[C@H](OC(C)=O)[C@H]2[C@@H](OC(C)=O)[C@@H](C)C[C@]2(C)C(=O)[C@H](C)/C=C/C(C)(C)C(=O)[C@H](OCC(C)C)[C@H]1OC(C)=O`, for which the TGI in the assay on SF-539 CNS, in the assay with SK-MEL-2 melanoma, in the assay on HCC-2998 colon, in the assay on U251 CNS, in the assay with SK-OV-3 ovarian and in the assay with OVCAR-8 ovarian was greater than 25 µM in each case. Also, the TGI in the assay with CAKI-1 renal, in the assay on HCT-116 colon, with MDA-MB-435, in the assay with SN12C renal, in the assay on SF-295 CNS and with SK-MEL-5 melanoma was greater than 25 µM each time. The TGI in the assay on SF-268 CNS, in the assay on MCF7 breast, in the assay with HOP-92 NSCLC and in the assay with LOX IMVI melanoma was greater than 25 µM in each case.
For the compound `CC(C)(C)/C(=N\Nc1nc2ccccc2[nH]1)c1ccccn1`, the TGI in the assay with SF-539 CNS was greater than 100 µM; with SK-MEL-2 melanoma it was greater than 100 µM; in the assay on U251 CNS it was greater than 100 µM; in the assay on SK-OV-3 ovarian, greater than 100 µM; in the assay on RPMI-8226 leukemia, 35.4 µM; in the assay with OVCAR-8 ovarian it was greater than 100 µM. The TGI with CAKI-1 renal was greater than 100 µM; in the assay with HCT-116 colon, 78 µM; in the assay with MDA-MB-435, greater than 100 µM; in the assay with SN12C renal, greater than 100 µM; in the assay with SK-MEL-5 melanoma it was greater than 100 µM; in the assay on SF-268 CNS, greater than 100 µM. Also, the TGI in the assay on MCF7 breast is 67.2 µM; in the assay on HOP-92 NSCLC, greater than 100 µM; in the assay with LOX IMVI melanoma, greater than 100 µM.
